In ChEMBL document CHEMBL1124556, “Biphenylcarboxamide derivatives as antagonists of platelet-activating factor” (J Med Chem, 1989):

Key:
Type in all cases: functional
Cavia porcellus [1] = assay: 50% inhibitory dose in a guinea pig bronchoconstriction assay upon intravenous administration; settings: Lung, read-out: ID50 (the source's name)
Cavia porcellus [2] = assay: 50%inhibitory dose in a guinea pig bronchoconstriction assay through peroral administration; settings: Lung, po, read-out: ID50 (the source's name)
Cavia porcellus [3] = assay: Platelet-activating factor-antagonist activity was assessed in guinea pig bronchoconstriction assay through peroral administration at a dose of 50 mg/kg at 2 hr; settings: Lung, route oral
Cavia porcellus [4] = assay: 50% inhibitory dose in a guinea pig bronchoconstriction assay through peroral administration; settings: Lung, po, read-out: ID50 (the source's name)
Cavia porcellus [5] = assay: Platelet-activating factor-antagonist activity was assessed in guinea pig bronchoconstriction assay through peroral administration at a dose of 50 mg/kg at 6 hr; settings: Lung, route oral
Cavia porcellus [6] = assay: 50% inhibitory dose in a guinea pig bronchoconstriction assay of intravenous administration; settings: Lung, read-out: ID50 (the source's name)

Structure (SMILES) | ED50 (Cavia porcellus [1]) [mg/kg] | ED50 (Cavia porcellus [2]) [mg/kg] | inhibition in vivo at 50 mg/kg (Cavia porcellus [3]) [%] | ED50 (Cavia porcellus [4]) [mg/kg] | inhibition in vivo at 50 mg/kg (Cavia porcellus [5]) [%] | ED50 (Cavia porcellus [6]) [mg/kg]
COc1cccc(-c2ccc(C(=O)NCCCCc3cccnc3)cc2)c1 | 0.51 | 50 | 55 | – | – | –
C=CCc1cc(C(=O)N[C@H](C)CCCc2cccnc2)ccc1-c1ccc(OC)c(OC)c1 | – | – | 93 | 24 | 26 | 0.33
COc1cccc(-c2ccc(C(=O)N[C@H](C)CCCc3cccnc3)cc2)c1 | – | – | 44 | – | – | 0.45
O=C(NCCCCc1cccnc1)c1ccc(-c2ccccc2)c(-c2ccccc2)c1 | – | – | 33 | – | – | 3.2
COc1ccc(-c2ccc(C(=O)N[C@H](C)CCCc3cccnc3)cc2)cc1OC | – | – | 88 | 30 | 29 | 0.62
COc1ccc(-c2ccc(C(=O)NCCCCc3cccnc3)cc2OC)cc1OC | – | – | 64 | – | 13 | 0.52
COc1ccc(-c2ccc(C(=O)NCCCCc3cccnc3)cc2[N+](=O)[O-])cc1OC | – | – | 62 | 39 | 4 | 0.76
COc1ccc(-c2ccc(C(=O)N[C@H](C)CCCc3cccnc3)cc2[N+](=O)[O-])cc1OC | – | – | 89 | 22 | 36 | 0.19
CCCCc1cc(C(=O)N[C@H](C)CCCc2cccnc2)ccc1-c1ccc(OC)c(OC)c1 | – | – | 91 | 25 | 55 | 0.8
COc1ccc(-c2ccc(C(S)=N[C@H](C)CCCc3cccnc3)cc2)cc1OC | – | – | 37 | – | – | 0.31
CCc1cc(C(=O)N[C@H](C)CCCc2cccnc2)ccc1-c1ccc(OC)c(OC)c1 | – | – | 89 | 24 | 23 | 0.34
COc1ccc(-c2ccc(C(=O)N[C@H](C)CCCc3cccnc3)cc2Br)cc1OC | – | – | 97 | 14 | 59 | 0.4
COc1ccc(-c2ccc(C(=O)NCCCCc3cccnc3)cc2Br)cc1OC | – | – | 74 | 19 | 1 | 0.4
